The assay deals with L. donovani-infected THP-1 macrophages, intracellular amastigote imaging. In words: intracellular L. donovani amastigote inhibition, imaging, THP-1 host macrophages, host toxicity (AID 1159564).
Setting [1] is: measured here: THP-1 host cell toxicity.
Where [2] appears, read: measured here: amastigotes per macrophage.

Active and inactive are the calls of the source. No rule for the calls is given here.

The IC50 is the concentration at which inhibition is half-maximal. As for `COc1ccc2ncc(F)c(CCN3CC[C@@H](NC(=O)c4cc5c(s4)CCC5)[C@@H](O)C3)c2n1`, the IC50 was 6.3 µM. The IC50 under setting [1] came out at 25 µM. Under setting [2], this molecule showed an IC50 of 1.3 µM.
In the same order, the values of `O=C(Nc1cccc(S(=O)(=O)Nc2ccc(Br)cc2)c1)c1ccc([N+](=O)[O-])s1` are 1 µM, 10 µM and 0.79 µM.
In the same order, the values of `COc1ccc(-c2cnc(NC(=O)c3ccc(F)cc3)n2C)cc1` are 1.3 µM, over 50 µM and 0.5 µM.
As for `O=C(NCCc1cccnc1)c1csc(-c2ccccc2)n1`, the IC50 is > 50 µM (inactive). Also, under setting [1], the half-inhibitory concentration (IC50) was over 50 µM. In addition, the IC50 under setting [2] was over 50 µM.
With `CCC1Oc2cc(S(=O)(=O)N(C)CC(=O)N3CCc4ccccc4C3)c(C)cc2NC1=O` (stereo not drawn), the IC50 is > 50 µM (inactive). Under setting [1], this molecule showed an IC50 of over 50 µM. Also, the IC50 under setting [2] was 32 µM.
On the same counts, the results for `c1ccc2sc(Nc3nc4ncccc4[nH]3)nc2c1` are 2.5 µM, 16 µM and 1.3 µM.
In the same order, the values of `COc1ccc(NS(=O)(=O)c2cc(-c3cc(C)[nH]n3)ccc2C)cc1OC` are 10 µM, over 50 µM and 7.9 µM.
In the same order, the values of `CC(CNS(=O)(=O)c1ccc(OC(F)F)cc1)c1ccc(NC(=O)c2ccncc2)cc1` (stereo not drawn) are > 50 µM (inactive), 16 µM and 5 µM.
Take `O=C(Cc1ccc2c(c1)CCC2)Nc1n[nH]c(-c2ccccn2)n1`: the IC50 is 6.3 µM. Further, the IC50 under setting [1] is over 50 µM. Besides, under setting [2], the IC50 was found to be 6.3 µM.
For the molecule `N#Cc1ccc(C(=O)Nc2cccc(-c3cccc(CN4CCC(O)CC4)c3)c2)cc1`, the half-inhibitory concentration (IC50) was 16 µM. The IC50 under setting [1] is 16 µM. The IC50 under setting [2] amounted to 7.9 µM.
Regarding `NS(=O)(=O)c1ccc(Nc2nccc(-c3cnn4ncccc34)n2)cc1`, the IC50 was 2 µM. The IC50 under setting [1] turned out to be 0.25 µM. Besides, the IC50 under setting [2] came out at 1 µM.
In the same order, the values of `COc1ccc([N+](=O)[O-])cc1NC(=O)Nc1cccc(Cl)c1` are > 50 µM (inactive), 50 µM and over 50 µM.
In the same order, the values of `c1ccc2[nH]c(-c3ccc(N4CCCC4)nc3)nc2c1` are > 50 µM (inactive), 32 µM and over 50 µM.
In the case of `O=C(CC1(O)C(=O)N(Cc2ccccc2)c2ccc(Br)cc21)c1cccnc1` (stereo not drawn), the IC50 was > 50 µM (inactive). For the same molecule, the IC50 under setting [1] came to 40 µM. For the same molecule, the IC50 under setting [2] was 32 µM.
Take `CC1(C)CCC(=Cc2ccc(Cl)cc2)CC1(O)Cn1ccnc1` (stereo not drawn): the IC50 is 7.9 µM. Also, the IC50 under setting [1] is 13 µM. The IC50 under setting [2] came out at 2 µM.
Consider `N#Cc1cc(N2CCCC2=O)ccc1Sc1ccccc1CO`, for which the IC50 is > 50 µM (inactive). The molecule further came in with an IC50 under setting [1] of over 50 µM. Under setting [2], this molecule came in with an IC50 of over 50 µM.
In the case of `COc1ccccc1CNc1cc(C2CC2)nc(-c2nccn2C)n1`, the IC50 is 0.5 µM. For the same molecule, under setting [1], the IC50 came to 16 µM. Under setting [2], the IC50 came to 0.4 µM.
In the same order, the values of `CNC(=O)C1Cc2ccccc2N1C(=O)Cc1ccc(F)cc1` (stereo not drawn) are > 50 µM (inactive), over 50 µM and over 50 µM.
`CCOc1ccc(N(C)S(=O)(=O)c2ccc3[nH]cc(C(=O)NC4CCCC4)c(=O)c3c2)cc1`: the IC50 is 32 µM. Under setting [1], the IC50 is 25 µM. The molecule also gave an IC50 under setting [2] of 32 µM.
As to `O=C(CN1CCN(c2ccccn2)CC1)Nc1cc(S(=O)(=O)N2CCCCCC2)ccc1Cl`, the IC50 is 6.3 µM. In addition, under setting [1], the IC50 is 50 µM. In addition, the half-inhibitory concentration (IC50) under setting [2] came out at 1.3 µM.
In the same order, the values of `COc1cc(Nc2nccc(Nc3onc(C)c3C)n2)cc(S(=O)(=O)C2CCOCC2)c1` are > 50 µM (inactive), 40 µM and 5 µM.
On the same counts, the results for `CCCc1cc(N)nc(-c2cc(CCC)cc(N)n2)c1` are 2.5 µM, 20 µM and 1.6 µM.
In the same order, the values of `O=C(c1ccccc1)N1CCC(C(=O)N2CCC(Oc3ccccc3Cl)CC2)CC1` are > 50 µM (inactive), over 50 µM and 32 µM.
With `Cn1cc(CN2CCN(c3ccc4c(c3)CCN(C(=O)[C@H]3C[C@@H]3c3ccccc3)CC4)CC2)cn1`, the IC50 was 32 µM. In addition, the IC50 under setting [1] stood at 6.3 µM. This molecule came in with an IC50 under setting [2] of 1 µM.
In the same order, the values of `O=C(Nc1nc2cc(Cl)ccc2o1)c1cccc(Cl)c1` are > 50 µM (inactive), 6.3 µM and over 50 µM.
As to `O=C(NC1C(=O)N(c2ccccc2)C1c1cccnc1)c1ccc(Cl)s1` (stereo not drawn), the IC50 was > 50 µM (inactive). Besides, the IC50 under setting [1] is over 50 µM. For the same molecule, under setting [2], the IC50 is 0.79 µM.

Values taken from PubChem BioAssay AID1159564 (GlaxoSmithKline (GSK), 2015).
